Results as given in patent US20060035810A1, “Regulation of ins(3456)p4 signalling by a reversible kinase phosphatase and methods and compositions related thereto” (priority 2002, published 2006).

Columns and labels:
[1] = molecular target: T1, Ins(1,3,4,5,6)P5 1-phosphatase activity of Ins(3,4,5,6)P4 kinase (Homo sapiens, UniProt Q13572); assay: Inositol phosphate phosphatase activity assay with ADP (HPLC); type: biochemical
T1 construct: made in house; host or cells: E. coli
T1 sequence (Q13572 1-414): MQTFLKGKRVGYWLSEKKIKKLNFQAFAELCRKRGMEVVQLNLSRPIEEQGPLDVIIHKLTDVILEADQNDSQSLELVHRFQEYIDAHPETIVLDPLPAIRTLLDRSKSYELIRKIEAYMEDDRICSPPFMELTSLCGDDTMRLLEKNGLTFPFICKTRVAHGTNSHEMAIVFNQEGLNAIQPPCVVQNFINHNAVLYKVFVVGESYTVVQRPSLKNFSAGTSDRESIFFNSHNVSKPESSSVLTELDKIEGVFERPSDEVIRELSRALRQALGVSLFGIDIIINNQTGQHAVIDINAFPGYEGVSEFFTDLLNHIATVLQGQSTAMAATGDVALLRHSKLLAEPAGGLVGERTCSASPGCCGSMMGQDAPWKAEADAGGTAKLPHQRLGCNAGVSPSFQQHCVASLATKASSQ
Description: Ins(3,4,5,6)P4 kinase (0.4 μg) was incubated for 30 min in 100 μl phosphatase assay buffer (see Methods) either with (closed circles) or without (open circles) 5 mM ADP plus trace-amounts of either [^3H]Ins(1,3,4,5,6)P5 (panel A) [^3H]Ins(1,3,4,6)P4 (panel B), or [^3H]Ins(1,3,4,5)P4 (panel C). Samples were analyzed by HPLC (see Methods). The elution positions of Ins(1,3,4)P3 and Ins(3,4,5,6)P4 were verified with genuine standards. The elution positions of Ins(1,3,4,6)P4 (106 min, panel B) and of Ins(1,3,4,5)P4 (110 min, panel C) exclude these as products of InsP5 dephosphorylation (panel A).
Additional incubations were performed with 5 μM [^3H]Ins(1,3,4)P3 (approx. 1200 d.p.m.) plus either no Ins(1,3,4,5,6)P5 (open circles) or 5 μM non-radiolabeled Ins(1,3,4,5,6)P5 (closed circles); these reactions were assayed by HPLC (Synchropak Q100 column) and the InsP4 region of the chromatogram is shown in Panel B.
Inositol phosphate phosphatase activity was assayed in buffer containing 100 mM KCl, 20 mM HEPES pH 7.2, 5 mM ADP, 6 mM MgSO4, 0.3 mg/ml bovine serum albumin. Assays were acid-quenched, neutralized and analyzed by HPLC using a Synchropak Q100 columm (Caffrey et al., “Expanding Coincident Signaling by PTEN through its Inositol 1,3,4,5,6-Pentakisphosphate 3-phosphatase Activity,” FEBS Lett 499: 6-10 (2001)); 1 ml fractions were collected for 70 min., followed by 0.5 ml fractions. Inositol phosphate kinase activity was assayed in buffer containing 100 mM KCl, 20 mM HEPES pH 7.2, 5 mM ATP, 10 mM phosphocreatine, 6 mM MgSO4, 10 μg/ml creatine phosphokinase (Calbiochem), 0.3 mg/ml bovine serum albumin. Some assays were acid-quenched and analyzed by HPLC using a Synchropak Q100 column. Other reactions were heat-inactivated (95° C., 3 min) and analyzed by a metal dye detection, HPLC method (Mayr, “A novel metal-dye detection sysytem permits picomolar-range h.p.l.c. analysis of inositol polyphosphates from non-radioactively labelled cell or tissue specimens,” Biochem J 254: 585-591 (1988); Adelt et al., “Enzyme-assisted total synthesis of the optical antipodes D-myo-inositol 3,4,5-trisphosphate and D-myo-inositol 1,5,6-trisphosphate: aspects of their structure-activity relationship to biologically active inositol phosphates,” J Med Chem 42: 1262-1273 (1999)).

[2] = system: calcium-activated Cl− channels; assay: Whole-cell Cl− current in CFPAC-1 cells (bio-assay for Ins(3,4,5,6)P4); type: cell-based, human; details: 10 μM in CFPAC-1 cells; control 54±3 pA/pF; +40 mV, free [Ca2+] 0.5 μM
Description: T84 cells were detached by incubation with 0.25% (w/v) trypsin/0.02% (w/v) EDTA for 5-6 min. After trypsin removal, 200 μl aliquots (1.5×10^6/ml) were seeded into the circular wells (area=0.45 cm^2) of permeable supports, made by gluing (Silastic® sealant, Dow Corning, Midland, Mich.) a Sylgard® ring to filters composed of mixed cellulose esters (Millipore Corp., Bedford, Mass.). Seeded supports were floated on culture medium and incubated for 11-14 days before being mounted in modified Snapwell holders in Using chambers (EasyMount System, Physiologics Instruments, San Diego, Calif.). Transcellular Cl^− flux was then recorded as the short-circuit current as previously described. The resistance of the monolayers were (vector) 346±44 ohms/cm^2 (mean±se, n=12) and (kinase) 354±62 ohms/cm^2 (mean±se, n=12). Whole-cell Cl^− currents in CFPAC—I cells were measured at +40 mV as previously described using an intracellular Ca^2+-BAPTA buffer to clamp free [Ca^2+] to 0.5 μM [8]. One possibility is that Ins(3,4,5,6)P4 originates by phosphorylation of an InsP3 precursor. […] Control whole-cell Cl^− current (54±3 pA/pF, n—17) was reduced to 24±3 pA/pF (n=7) by 10 μM Ins(3,4,5,6)P4.

[3] = system: calcium-activated Cl− channels; details: read-out: sensitivity of calcium-activated Cl− channels to Ins(3,4,5,6)P4 (IC50); cited from earlier work

Vmax for dephosphorylation ([1]; with Ins(1,3,4)P3 present) [pmol/μg protein/min] | SMILES | product of ADP-dependent dephosphorylation ([1]; 5 mM ADP, trace amounts of substrate) | whole-cell Cl− current [2] [pA/pF] | IC50 [3] [µM]
82 | O=P(O)(O)OC1[C@@H](OP(=O)(O)O)[C@H](OP(=O)(O)O)C(O)[C@H](OP(=O)(O)O)[C@H]1OP(=O)(O)O (stereo partly shown) [Ins(1,3,4,5,6)P5, inositol 1,3,4,5,6-pentakisphosphate] | dephosphorylated to an [^3H]InsP4 peak co-eluting upon HPLC with a standard of Ins(3,4,5,6)P4 |  | 
 | O=P(O)(O)OC1C(O)C(O)C(OP(=O)(O)O)C(OP(=O)(O)O)C1OP(=O)(O)O (stereo not shown) [Ins(3,4,5,6)P4, inositol 3,4,5,6-tetrakisphosphate] |  | 24±3 | 3
